Results published in patent US10266497B2 (ABIDE THERAPEUTICS, INC., priority 2017, dated 2019).

Columns and labels:
FAAH [1] = target: T1, FAAH (Homo sapiens, UniProt O00519); test: In vitro competitive activity-based protein profiling, FAAH, human; settings: for inhibition at 1 µM: read-out: FAAH % inh. 1 μM (human)
T1 sequence (O00519 1-579): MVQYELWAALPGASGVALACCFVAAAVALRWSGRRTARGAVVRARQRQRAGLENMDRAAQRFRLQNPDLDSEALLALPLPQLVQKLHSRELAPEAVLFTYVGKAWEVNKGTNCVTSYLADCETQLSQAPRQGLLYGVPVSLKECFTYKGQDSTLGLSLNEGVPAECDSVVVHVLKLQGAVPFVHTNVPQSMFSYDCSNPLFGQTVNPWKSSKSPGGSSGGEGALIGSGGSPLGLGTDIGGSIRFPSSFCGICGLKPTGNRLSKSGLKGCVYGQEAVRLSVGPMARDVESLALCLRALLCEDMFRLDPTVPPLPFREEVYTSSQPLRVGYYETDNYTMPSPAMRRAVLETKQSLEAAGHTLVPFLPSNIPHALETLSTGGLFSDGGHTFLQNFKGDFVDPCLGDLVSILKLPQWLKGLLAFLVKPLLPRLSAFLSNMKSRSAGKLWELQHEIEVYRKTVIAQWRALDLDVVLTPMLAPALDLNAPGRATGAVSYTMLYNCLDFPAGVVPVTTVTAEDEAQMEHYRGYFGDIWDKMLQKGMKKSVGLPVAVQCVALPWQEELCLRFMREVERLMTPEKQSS

MAGL [2] = target: T2, MAGL (Mus musculus, UniProt O35678); test: In vitro competitive activity-based protein profiling, MAGL, mouse; settings: read-out: MAGL % inh. 1 μM (mouse)
T2 sequence (O35678 1-303): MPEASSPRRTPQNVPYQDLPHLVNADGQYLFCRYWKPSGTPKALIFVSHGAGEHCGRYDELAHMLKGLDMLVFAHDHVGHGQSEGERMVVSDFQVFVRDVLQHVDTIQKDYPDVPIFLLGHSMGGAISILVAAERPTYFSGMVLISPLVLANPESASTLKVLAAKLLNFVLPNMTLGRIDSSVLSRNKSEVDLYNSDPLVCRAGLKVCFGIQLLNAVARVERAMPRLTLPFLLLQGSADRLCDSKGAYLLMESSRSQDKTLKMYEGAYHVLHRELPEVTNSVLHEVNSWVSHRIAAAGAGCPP
Procedure: (§1) Biological Evaluation In Vitro Competitive Activity-Based Protein Profiling.
(§2) Proteomes (mouse brain membrane fraction for mouse assays; human prefrontal cortex membrane fractions for human assays) (50 mL, 1.0 mg/mL total protein concentration) were preincubated with varying concentrations of inhibitors at 37° C. After 30 min, FP-Rh (1.0 mL, 50 mM in DMSO) was added and the mixture was incubated for another 30 min at 37° C. Reactions were quenched with SDS loading buffer (15 μL—4λ) and run on SDS-PAGE.

FAAH [3] = target: T3, FAAH (Mus musculus, UniProt O08914); test: In vitro competitive activity-based protein profiling, FAAH, mouse; settings: read-out: FAAH % inh. 1 μM (mouse)
T3 sequence (O08914 1-579): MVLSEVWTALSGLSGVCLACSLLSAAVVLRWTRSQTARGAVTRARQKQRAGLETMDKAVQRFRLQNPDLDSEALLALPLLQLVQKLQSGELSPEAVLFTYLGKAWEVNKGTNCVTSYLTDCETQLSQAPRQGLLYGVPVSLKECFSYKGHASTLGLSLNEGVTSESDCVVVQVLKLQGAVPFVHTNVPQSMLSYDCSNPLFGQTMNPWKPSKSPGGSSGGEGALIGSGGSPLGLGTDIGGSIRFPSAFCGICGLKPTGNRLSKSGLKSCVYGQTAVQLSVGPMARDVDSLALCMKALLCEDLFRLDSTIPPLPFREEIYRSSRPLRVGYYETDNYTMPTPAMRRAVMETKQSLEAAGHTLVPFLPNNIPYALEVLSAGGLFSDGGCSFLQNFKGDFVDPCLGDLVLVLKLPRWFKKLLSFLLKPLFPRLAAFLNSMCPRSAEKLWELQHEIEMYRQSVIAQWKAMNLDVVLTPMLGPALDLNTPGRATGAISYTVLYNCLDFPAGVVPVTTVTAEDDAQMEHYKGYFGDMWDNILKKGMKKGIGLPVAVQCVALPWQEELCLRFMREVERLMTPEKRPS

MAGL [4] = target: T4, MAGL (Homo sapiens, UniProt Q99685); test: In vitro competitive activity-based protein profiling, MAGL, human; settings: for inhibition at 1 µM: read-out: MAGL % inh. 1 μM (human)
T4 sequence (Q99685 1-303): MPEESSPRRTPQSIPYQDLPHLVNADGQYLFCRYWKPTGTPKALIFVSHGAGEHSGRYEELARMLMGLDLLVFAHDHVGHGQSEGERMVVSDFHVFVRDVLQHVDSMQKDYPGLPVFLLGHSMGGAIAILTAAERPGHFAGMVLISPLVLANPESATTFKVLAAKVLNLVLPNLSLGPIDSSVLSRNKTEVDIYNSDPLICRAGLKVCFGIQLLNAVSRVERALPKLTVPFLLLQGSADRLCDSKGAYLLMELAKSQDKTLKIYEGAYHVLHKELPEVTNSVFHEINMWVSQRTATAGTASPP
Procedure: as §1, §2

| Structure (SMILES) | IC50 (FAAH [1]) [nM] | inhibition at 1 µM (FAAH [1]) [%] | inhibition at 1 µM (MAGL [2]) [%] | inhibition at 1 µM (FAAH [3]) [%] | inhibition at 1 µM (MAGL [4]) [%] | inhibition at 10 µM (FAAH [1]; read-out: FAAH % inh. (human) at 10 uM) [%] | inhibition at 10 µM (MAGL [4]; read-out: MAGL % inh. (human) at 10 uM) [%] |
| --- | --- | --- | --- | --- | --- | --- | --- |
| O=C(O)c1ccn(C(=O)N2CCC3(CCN(Cc4cccc(-c5ccccc5)c4)C3)CC2)n1 [Example 73, 1-(2-([1,1′-biphenyl]-3-ylmethyl)-2,8-diazaspiro[4.5]decane-8-carbonyl)-1H-pyrazole-3-carboxylic acid] | – | 0 to 25 | > 75 | 50 to 75 | > 75 | – | – |
| O=C(O)c1ccn(C(=O)N2CCC3(CCN(Cc4ccc(Oc5ccc(Cl)cc5)cc4)C3)CC2)n1 [Example 75, 1-(2-(4-(4-chlorophenoxy)benzyl)-2,8-diazaspiro[4.5]decane-8-carbonyl)-1H-pyrazole-3-carboxylic acid] | – | 0 to 25 | 50 to 75 | 50 to 75 | > 75 | – | – |
| O=C(O)c1ccn(C(=O)N2CCC3(CCN(Cc4cc(F)cc(F)c4)C3)CC2)n1 [Example 79, 1-(2-(3,5-difluorobenzyl)-2,8-diazaspiro[4.5]decane-8-carbonyl)-1H-pyrazole-3-carboxylic acid] | – | – | 0 to 25 | 0 to 25 | – | 50 to 75 | > 75 |
| CN(Cc1cc(Cl)ccc1C(F)(F)F)C1CCN(C(=O)n2ccc(C(=O)O)n2)CC1 [Example 81, 1-(4-((5-chloro-2-(trifluoromethyl)benzyl)(methyl)amino)piperidine-1-carbonyl)-1H-pyrazole-3-carboxylic acid] | 100 to 1000 | 50 to 75 | > 75 | 0 to 25 | > 75 | – | – |
| O=C(O)c1ccn(C(=O)N2CCC3(CCCN3Cc3ccc(C(F)(F)F)cc3N3C4CCC3COC4)CC2)n1 [Example 82, 1-(1-(2-(3-oxa-8-azabicyclo[3.2.1]octan-8-yl)-4-(trifluoromethyl)benzyl)-1,8-diazaspiro[4.5]decane-8-carbonyl)-1H-pyrazole-3-carboxylic acid] | – | 0 to 25 | > 75 | 0 to 25 | > 75 | – | – |
| O=C(O)c1ccn(C(=O)N2CCN(Cc3cccc(Oc4cccc(Cl)c4)c3)CC2)n1 [Example 84, 1-(4-(3-(3-chlorophenoxy)benzyl)piperazine-1-carbonyl)-1H-pyrazole-3-carboxylic acid] | 100 to 1000 | 0 to 25 | > 75 | 50 to 75 | > 75 | – | – |
| O=C(O)c1ccn(C(=O)N2CCN(Cc3cccc(Oc4ccccc4Cl)c3)CC2)n1 [Example 85, 1-(4-(3-(2-chlorophenoxy)benzyl)piperazine-1-carbonyl)-1H-pyrazole-3-carboxylic acid] | 1000 to 10000 | 0 to 25 | > 75 | 50 to 75 | > 75 | – | – |
| O=C(O)c1ccn(C(=O)N2CCN(Cc3cc(N4CCCC4)cc(C(F)(F)F)c3)CC2)n1 [Example 87, 1-(4-(3-(pyrrolidin-1-yl)-5-(trifluoromethyl)benzyl)piperazine-1-carbonyl)-1H-pyrazole-3-carboxylic acid] | – | 0 to 25 | > 75 | 0 to 25 | > 75 | – | – |
| Cc1cc(-c2ccccc2)ccc1CN1CCN(C(=O)n2ccc(C(=O)O)n2)C(C)C1 (centres unmarked) [Example 89, 1-(2-methyl-4-((3-methyl-[1,1′-biphenyl]-4-yl)methyl)piperazine-1-carbonyl)-1H-pyrazole-3-carboxylic acid] | 100 to 1000 | > 75 | > 75 | > 75 | > 75 | – | – |
| C[C@@H]1CC[C@H](C)N1c1cc(C(F)(F)F)ccc1CN1CCN(C(=O)n2ccc(C(=O)O)n2)CC1 [Example 94, 1-(4-(2-((2R,5S)-2,5-dimethylpyrrolidin-1-yl)-4-(trifluoromethyl)benzyl)piperazine-1-carbonyl)-1H-pyrazole-3-carboxylic acid] | – | 0 to 25 | > 75 | 0 to 25 | > 75 | – | – |
| O=C(O)c1ccn(C(=O)N2CCN(Cc3ccc(Cl)cc3N3CCN(C4CC4)CC3)CC2)n1 [Example 97, 1-(4-(4-chloro-2-(4-cyclopropylpiper-azin-1-yl)benzyl)piperazine-1-carbonyl)-1H-pyrazole-3-carboxylic acid] | – | 0 to 25 | > 75 | 0 to 25 | > 75 | – | – |
| O=C(O)c1ccn(C(=O)N2CCN(Cc3ccc(C(F)(F)F)cc3N3CCC(F)CC3)CC2)n1 [Example 102, 1-(4-(2-(4-fluoropiperidin-1-yl)-4-(trifluoromethyl)benzyl)piperazine-1-carbonyl)-1H-pyrazole-3-carboxylic acid] | – | 25 to 50 | > 75 | 0 to 25 | > 75 | – | – |

Results, then the compound that gave them:

| IC50 (FAAH [1]) [nM] | inhibition at 1 µM (FAAH [1]) [%] | inhibition at 1 µM (MAGL [2]) [%] | inhibition at 1 µM (FAAH [3]) [%] | inhibition at 1 µM (MAGL [4]) [%] | inhibition at 10 µM (FAAH [1]; read-out: FAAH % inh. (human) at 10 uM) [%] | inhibition at 10 µM (MAGL [4]; read-out: MAGL % inh. (human) at 10 uM) [%] | Structure (SMILES) |
| --- | --- | --- | --- | --- | --- | --- | --- |
| 1000 to 10000 | 0 to 25 | > 75 | 0 to 25 | > 75 | – | – | O=C(O)c1ccn(C(=O)N2CCC3(CCN(Cc4cc(Cl)cc(C(F)(F)F)c4)C3)CC2)n1 [Example 72, 1-(2-(3-chloro-5-(trifluoromethyl)benzyl)-2,8-diazaspiro[4.5]decane-8-carbonyl)-1H-pyrazole-3-carboxylic acid] |
| – | 0 to 25 | > 75 | 0 to 25 | > 75 | – | – | O=C(O)c1ccn(C(=O)N2CCC3(CCN(Cc4c(Cl)cccc4C(F)(F)F)C3)CC2)n1 [Example 74, 1-(2-(2-chloro-6-(trifluoromethyl)benzyl)-2,8-diazaspiro[4.5]decane-8-carbonyl)-1H-pyrazole-3-carboxylic acid] |
| 1000 to 10000 | 0 to 25 | > 75 | 0 to 25 | > 75 | – | – | O=C(O)c1ccn(C(=O)N2CCC3(CCN(Cc4ccc(C(F)(F)F)cc4Cl)C3)CC2)n1 [Example 77, 1-(2-(2-chloro-4-(trifluoromethyl)benzyl)-2,8-diazaspiro[4.5]decane-8-carbonyl)-1H-pyrazole-3-carboxylic acid] |
| – | 0 to 25 | > 75 | 0 to 25 | > 75 | – | – | O=C(O)c1ccn(C(=O)N2CCC3(CCN(Cc4ccc(C(F)(F)F)c(Cl)c4)C3)CC2)n1 [Example 78, 1-(2-(3-chloro-4-(trifluoromethyl)benzyl)-2,8-diazaspiro[4.5]decane-8-carbonyl)-1H-pyrazole-3-carboxylic acid] |
| – | > 75 | > 75 | > 75 | > 75 | – | – | NC(=O)c1ccn(C(=O)N2CCC3(CCN(Cc4cc(Cl)ccc4C(F)(F)F)C3)CC2)n1 [Example 99, 1-(2-(5-chloro-2-(trifluoromethyl)benzyl)-2,8-diazaspiro[4.5]decane-8-carbonyl)-1H-pyrazole-3-carboxamide] |
